# In patent publication US8329685B1, “Enhancement of the action of anti-infective agents and of central and peripheral nervous system agents and transportation of nucleic acid substances” (priority 2001, dated 2012):
# Entries after “also recorded” stand apart in the source; their conditions may differ. Where two headings read alike, the source gives them in different places.
# Assays:
# [1] = test system: HIV subtype D viruses in CD4 helper T-cells (CEM-SS cell line); test: HIV viral load (p24 core antigen ELISA) in infected CD4 helper T-cells; type: cell-based, HIV-1
# Protocol: The following protocols were followed in this investigation: • a) Several cultures of CD4 helper T-cells (CEM-SS cell line; NIH AIDS Research and Reference Reagent Program) were infected with HIV subtype D viruses at applicable cell seeding densities and viral loads. Cells were maintained in tissue culture under standard culturing conditions. • b) The viral load in cultured cells were determined every day for 7 consecutive days after infection by measuring the p24 core antigen of HIV-1 in the supernatant culturing fluid by ELISA. This assay is based on a colour change after addition of substrate that is proportionate to the viral replication in each culture. The colour change is monitored by absorbance spectrophotometry at 450 nm. Negative control absorbance readings were used to calculate the absorbance/cut-off for each culture. • c) Determination of the optimal concentration of nanolipid-vesicle containing base formulation was done by cytotoxicity assays and cell growth curves. The cytotoxicity assay used was the standard MTT assay and spectrophotometry was once again used to determine cell viability for the CEM-SS cell line. Growth curves were used to determine the optimal concentration of base formulation for human macrophage cells (THP-1 cell line).
# [2] = test system: melanoma cells (UCT MeI 1 cell line) incubated with fungi; conditions: 0.2%
# M. tuberculosis H37Rv = test: BACTEC growth index with Ethambutol with and without MZL; type: cell-based, Mycobacterium tuberculosis; conditions: for inhibition at 0.0325 µg/mL: 0.0325 μg/ml Ethambutol; for inhibition at 0.0625 µg/mL: 0.0625 μg/ml Ethambutol; for inhibition at 0.125 µg/mL: 0.125 μg/ml Ethambutol; for inhibition at 0.25 µg/mL: 0.25 μg/ml Ethambutol; for inhibition at 0.5 µg/mL: 0.5 μg/ml Ethambutol; for inhibition at 1 µg/mL: 1.0 μg/ml Ethambutol
# [3] = human, in vivo
# [4] = test system: S. Aureus and P. Aeruginosa; test: Zone of inhibition study of Povidone iodine; type: cell-based; conditions: formulated with the nanolipid vesicles of Preparation 2; 6.30 g Povidone iodine in 100 g; FIG. 2
# [5] = test system: BCG (Bacillus of Calmette and Guerin); conditions: after a two-hour incubation; free drug
# [6] = 20° C. and 2 atm pressure; cited from earlier work
# [7] = test system: Plasmodium Falciparum drug resistant reference strain W2; test: Growth of malaria parasites in human erythrocyte cultures (% parasitaemia, Giemsa smears); type: cell-based
# Text: The specific parasite investigated was the reference drug resistant strain W2 of the species Plasmodium Falciparum. Plasmodium Falciparum is the most commonly occurring as well as the most virulent malaria parasite currently known in man.
# The system used in this investigation aims to mimic the live situation as closely as possible. For that reason, the parasites were infected into fresh primary erythrocytes isolated from O+ or A+ blood donors.
# Furthermore, human serum prepared from the same donors was used as an adjuvant instead of foetal calf serum. Parasite growth was maintained by the addition of freshly prepared erythrocytes from the same donors.
# The growth of the parasites was determined by visualization of the parasite DNA on thin smears of the infected cultures. Since mature erythrocytes contain no nucleus, and therefore no DNA, the only DNA present was of parasitic origin. Only intracellular parasites were included in determining the percentage parasitaemia, as extracellular parasites are no longer viable.
# A. Culturing of Malaria Parasites: • 1. Preparation of fresh human erythrocytes • 2. Preparation of human serum from the same donor. • 3. Quality control of human serum. • 4. Infection of erythrocyte cultures with parasites. Initial infection load was 0.5% parasitaemia. • 5. Maintenance of parasite blood cultures • 6. The parasite percentage in the blood cultures was determined after 36 or 48 hours, depending on the level of infection of the freshly added erythrocytes.
# A stock solution of 10 mM chloroquine solution in a 1:250 dilution of nanolipid formulation was made by vortexing and sonication. All concurrent dilutions were from this stock.
# D Drug Delivery by MZL Nanolipid Formulations: • 1 Penetrance of nanolipid formulations in red blood cells was determined by microscopic visualization, as were the penetrance of chloroquine-carrying nanolipid formulations. • 2. […] Typically 48-well plates or 96-well plates were used. 200 ul or 100 ul total culture volumes were used respectively, of which 90% of the volume was infected erythrocyte culture. 10% volume was used for the treatment, be it chloroquine in Nanolipid formulation, chloroquine in water, or for the controls 1:250 pure Nanolipid formulation, pure culturing media or water only. • 4. All series were in duplicate.
# Parasitic DNA was visualised by Giemsa staining of thin smears. Ethidium bromide or acridine orange may be used for fluorescent staining.
# The % infection after applicable incubation periods was determined as follows: […]
# [8] = test system: Plasmodium Falciparum drug resistant reference strain W2; conditions: read-out: 50% Inhibition concentration value (IC50); free Chloroquine; known value of strain W2; cited from earlier work
# [9] = Mycobacterium tuberculosis, H37RV, Minus MZL
# [10] = Mycobacterium tuberculosis, H37RV, Plus MZL
molecule,measurement,setting,value
"Cc1cn([C@H]2C[C@H](N=[N+]=[N-])[C@@H](CO)O2)c(=O)[nH]c1=O [free AZT, AZT]",inhibition of viral growth and replication compared to the control,"[1]; 0.1 nM free AZT, by day 7 and 8",44%
same,AZT concentration at which viral inhibition is optimal,[1]; dilution of base-formulation 1:256,0.5 to 1 nM
"Clc1ccc(COC(Cn2ccnc2)c2ccc(Cl)cc2Cl)c(Cl)c1 (centres unmarked) [Free Miconazole, Miconazole nitrate]",presence of fungi,[2]; 4 hours incubation,fungi were still present in large numbers
same,viability / state of human melanoma cells,"[2]; 4 hours incubation with fungi, listed as free Miconazole nitrate",decline dramatically; also recorded: cells were no longer attached to the petri dish
CC[C@@H](CO)NCCN[C@@H](CC)CO [Ethambutol],inhibition maintained with MZL,"M. tuberculosis H37Rv; MZL treated, over the range of 0.03125 μg/ml-0.125 μg/ml Ethambutol",approx 50%
same,MIC,"M. tuberculosis H37Rv; Mycobacterium tuberculosis, H37RV",~1 µg/mL
same,inhibition at 0.0325 µg/mL,"M. tuberculosis H37Rv; Mycobacterium tuberculosis, H37RV, Minus MZL, read-out: % Inhibition",-21%
same,inhibition at 0.0625 µg/mL,M. tuberculosis H37Rv; [9],-16%
same,inhibition at 0.125 µg/mL,M. tuberculosis H37Rv; [9],-12%
same,inhibition at 0.25 µg/mL,M. tuberculosis H37Rv; [9],51%
same,inhibition at 0.5 µg/mL,M. tuberculosis H37Rv; [9],81%
same,inhibition at 1 µg/mL,M. tuberculosis H37Rv; [9],92%
same,inhibition at 0.0325 µg/mL,M. tuberculosis H37Rv; [10],48%
same,inhibition at 0.0625 µg/mL,M. tuberculosis H37Rv; [10],49%
same,inhibition at 0.125 µg/mL,M. tuberculosis H37Rv; [10],52%
same,inhibition at 0.25 µg/mL,M. tuberculosis H37Rv; [10],51%
same,inhibition at 0.5 µg/mL,M. tuberculosis H37Rv; [10],62%
same,inhibition at 1 µg/mL,M. tuberculosis H37Rv; [10],86%
CO[C@H]1/C=C/O[C@@]2(C)Oc3c(C)c(O)c4c(O)c(c(/C=N/N5CCN(C)CC5)c(O)c4c3C2=O)NC(=O)/C(C)=C\C=C\[C@H](C)[C@H](O)[C@@H](C)[C@@H](O)[C@@H](C)[C@H](OC(C)=O)[C@@H]1C [Rifampicin],increase of coverage by the nanolipid delivery system,[3]; female,180%
same,total average increase in bioavailability by Nanolipid delivery system,[3]; female,227%
same,Tmax,"[3]; female, po",1 h
Povidone iodine,inhibition of bacterial growth versus free active,[4],dramatically increased
"NC(=O)c1cnccn1 [free Pyrazinamide, Pyrazinamide]",BCG-viability,[5],68-72%
same,bioavailability versus comparator Rifafour,[3],enhanced bioavailability
"NNC(=O)c1ccncc1 [INH, Isoniazid]",bioavailability versus comparator Rifafour,[3],enhanced bioavailability
[N-]=[N+]=O [Nitrous oxide],solubility in water,[6],one liter of the gas dissolves in 1.5 liters of water
CCN(CC)CCCC(C)Nc1ccnc2cc(Cl)ccc12 (centres unmarked) [Chloroquine],% Parasit,[7]; 1 nM chloroquine,2.67%
same,% Parasit,[7]; 5 nM chloroquine,2.33%
same,% Parasit,[7]; 10 nM chloroquine,2.96%
same,% Parasit,[7]; 25 nM chloroquine,2.84%
same,% Parasit,[7]; 50 nM chloroquine,2.7%
same,% Parasit,[7]; 75 nM chloroquine,3.33%
same,% Parasit,[7]; 100 nM chloroquine,2.81%
same,% Parasit,[7]; 200 nM chloroquine,2.87%
same,% Parasit,[7]; 300 nM chloroquine,1.8%
same,% Parasit,[7]; 500 nM chloroquine,1.5%
same,% Parasit,[7]; 1000 nM chloroquine,1.4%
same,IC50,[8],200 to 300 nM
